Where two headings read alike, the source gives them in different places.
Columns and labels:
[1] = target: T1, α-glucosidase (Saccharomyces cerevisiae, UniProt P53341); conditions: has been reported; cited from earlier work
[2] = target: T1, α-glucosidase; experiment: AGI kinetic analysis (Lineweaver–Burk plots); format: biochemical
Method: Four isocoumarins 1–4 and four flavonoids 5–8 were identified from the APE fraction, and AGI kinetic analyses were performed. During the reaction, α-glucosidase (0.76 unit/mL in 100-mmol phosphate buffer [pH 6.9]) activity was inhibited by the compounds (I) in the presence of the substrate (4-mmol p-nitrophenyl-α-D-glucopyranoside in 100-mmol phosphate buffer [pH 6.9]). The inhibition modes (competitive, uncompetitive, non-competitive, or mixed) of isocoumarins 1–4 and flavonoids 5–8 were examined using nonlinear regression Michaelis–Menten enzyme kinetics. The Lineweaver–Burk plot methods were used to determine kinetic parameters at increasing substrate and compound concentrations, and the parameters were calculated using a nonlinear regression program (Sigma Plot; SPCC Inc., Chicago, IL, USA). The obtained results represent three independent experiments.

T1 sequence (P53341 whole entry): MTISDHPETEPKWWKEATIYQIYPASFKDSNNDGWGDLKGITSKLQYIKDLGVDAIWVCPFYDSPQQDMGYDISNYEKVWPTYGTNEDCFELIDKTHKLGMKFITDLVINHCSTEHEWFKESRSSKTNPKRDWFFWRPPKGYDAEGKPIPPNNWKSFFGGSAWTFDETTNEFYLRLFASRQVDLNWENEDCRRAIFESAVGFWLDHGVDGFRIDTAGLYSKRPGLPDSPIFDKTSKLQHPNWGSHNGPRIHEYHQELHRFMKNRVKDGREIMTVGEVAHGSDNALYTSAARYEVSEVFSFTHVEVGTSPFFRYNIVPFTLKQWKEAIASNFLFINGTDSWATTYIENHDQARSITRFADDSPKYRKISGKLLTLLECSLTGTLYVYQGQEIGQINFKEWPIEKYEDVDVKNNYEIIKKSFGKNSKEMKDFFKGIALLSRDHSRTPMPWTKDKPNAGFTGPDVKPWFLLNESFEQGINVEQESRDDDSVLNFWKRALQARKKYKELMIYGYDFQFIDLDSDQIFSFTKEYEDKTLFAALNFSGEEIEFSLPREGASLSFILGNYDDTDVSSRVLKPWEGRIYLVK

| Structure (SMILES) | Inhibition Mode [1] | Inhibition Mode [2] |
| --- | --- | --- |
| O=c1c(O)c(-c2ccc(O)c(O)c2)oc2cc(O)cc(O)c12 [Compound 6, quercetin] | competitive |  |
| O=C1OC(CCc2ccc(O)cc2)Cc2cc(O)cc(O)c21 (stereo not drawn) [Compound 3, desmethylagrimonolide] |  | Non-competitive |
| COc1ccc(CCC2Cc3cc(O)cc(O)c3C(=O)O2)cc1 (stereo not drawn) [Compound 1, agrimonolide] |  | Non-competitive |
